Like-named read-outs stand apart in the source and are kept apart here.
What was measured:
[1] = Rodent pharmacokinetics of PIE12-trimer and conjugates (Table 3 protocol); assay type: in vivo, Sprague Dawley rats; conditions: rats, 1.0 mg/kg, plasma, median; for half-life: read-out: T1/2 (converted)
Experimental: At each timepoint, plasma was obtained using lithium heparin.
Samples were spiked with an internal standard then precipitated with two volumes of 98% acetonitrile/2% Formic acid. Supernatants were analyzed by LC/MS/MS using an Agilent HPLC system (Waters X-Bridge BEH C18 column) paired to an AB Sciex API 3000 triple-quad mass spectrometer using MRM methods. Lipid conjugates required lower source temperatures (300° C. vs 500° C.) for improved reproducibility.

[2] = target: HXB2 (X4) luciferase reporter pseudovirions on HOS-CD4-CXCR4; conditions: values marked * from Francis, et al. Bioconjugates, read-out: Antiviral potency HXB2 (IC50); cited from earlier work
[3] = target: JRFL (R5) luciferase reporter pseudovirions on HOS-CD4-CCR5; conditions: values marked * from Francis, et al. Bioconjugates, read-out: Antiviral potency JRFL (IC50); cited from earlier work

## CC(=O)N[C@H](Cc1c[nH]cn1)C(=O)N1CCC[C@@H]1C(=O)N[C@@H]1CSSC[C@H](C(=O)N[C@H](CCC(=O)O)C(=O)N[C@H](CC(C)C)C(=O)NCC(=O)N[C@H](CCCCNC(=O)CCOCCOCCOCCOCCNC(=O)CCOCC(N)(COCCC(=O)NCCOCCOCCOCCOCCC(=O)NCCCC[C@@H](NC(=O)CNC(=O)[C@@H](CC(C)C)NC(=O)[C@@H](CCC(=O)O)NC(=O)[C@H]2CSSC[C@@H](NC(=O)[C@H]3CCCN3C(=O)[C@@H](Cc3c[nH]cn3)NC(C)=O)C(=O)N[C@H](CC(=O)O)C(=O)N[C@H](Cc3ccc(O)cc3)C(=O)N3CCC[C@@H]3C(=O)N[C@H](CCC(=O)O)C(=O)N[C@H](Cc3c[nH]c4ccccc34)C(=O)N[C@H](CCC(N)=O)C(=O)N[C@H](Cc3c[nH]c4ccccc34)C(=O)N[C@H](CC(C)C)C(=O)N2)C(N)=O)COCCC(=O)NCCOCCOCCOCCOCCC(=O)NCCCC[C@@H](NC(=O)CNC(=O)[C@@H](CC(C)C)NC(=O)[C@@H](CCC(=O)O)NC(=O)[C@H]2CSSC[C@@H](NC(=O)[C@H]3CCCN3C(=O)[C@@H](Cc3c[nH]cn3)NC(C)=O)C(=O)N[C@H](CC(=O)O)C(=O)N[C@H](Cc3ccc(O)cc3)C(=O)N3CCC[C@@H]3C(=O)N[C@H](CCC(=O)O)C(=O)N[C@H](Cc3c[nH]c4ccccc34)C(=O)N[C@H](CCC(N)=O)C(=O)N[C@H](Cc3c[nH]c4ccccc34)C(=O)N[C@H](CC(C)C)C(=O)N2)C(N)=O)C(N)=O)NC(=O)[C@@H](CC(C)C)NC(=O)[C@@H](Cc2c[nH]c3ccccc23)NC(=O)[C@@H](CCC(N)=O)NC(=O)[C@@H](Cc2c[nH]c3ccccc23)NC(=O)[C@@H](CCC(=O)O)NC(=O)[C@H]2CCCN2C(=O)[C@@H](Cc2ccc(O)cc2)NC(=O)[C@@H](CC(=O)O)NC1=O [PIE12-trimer]
[1]; rat, in vivo, IV
  AUC(0-inf): 0.168 µM·h
  C0: 275 nM
  half-life: 33 min
[1]; rat, in vivo, IV, read-out: Cl (obs) (converted)
  clearance: 13.9 mL/min/kg
[1]; rat, in vivo, IV, read-out: Vz (obs)
  Vd: 0.7 L/kg
[1]; rat, in vivo, SC
  AUC(0-inf): 0.208 µM·h
  Cmax: 80 nM
  Tmax: 30 min
  half-life: 48.6 min
[1]; SC
  F: 96%
[2]
  IC50: 0.72 ± 0.04 nM
[3]
  IC50: 2.1 ± 0.28 nM
